The record followed here is ChEMBL document CHEMBL1139363, “Iron chelators of the dipyridylketone thiosemicarbazone class: precomplexation and transmetalation effects on anticancer activity” (J Med Chem, 2009).

The term IC50 denotes the midpoint of a concentration-inhibition curve. The low end stands for greater potency, the high end for weaker potency.

The subject of this test is HL-60. Put plainly: Antiproliferative activity against human HL60 cells after 72 hrs by MTT assay. Format: functional, cell-based. Conditions: HL-60, 72 h.

Turning to `CN(C)C(=S)NN=C(c1ccccn1)c1ccccn1`, the IC50 is 10 nM.
